The record followed here is US12233161B1, “Lipids and lipid nanoparticle formulations” (LONGUIDE BIOPHARMA CORPORATION, priority 2024, dated 2025).

Data set [1] has as its system mice. In words: In vivo delivery of FLuc-mRNA lipid nanoparticles in mice, in vivo imaging (IVIS). Summed up: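 Mice (n=3) received about 75 μL FLuc-mRNA LNP per mouse intramuscularly (rectus femoris), intravenously (tail vein), intraperitoneally or subcutaneously (back). After injection, D-luciferin (200 μL, 15 mg/mL) was given i.p. 10-15 min before IVIS imaging.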

Data set [2] in a line: Particle size and PDI of nucleic acid lipid nanoparticle preparations by dynamic light scattering. Type of data set: physicochemical. The method, boiled down:
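LNP solution (about 0.04 mg/mL mRNA before dilution) was diluted in ultrapure water and mixed by gentle pipetting. Particle size and PDI were then measured by dynamic light scattering.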

Data set [3] can be described thus: Potential characterization of nucleic acid lipid nanoparticle preparations. Type of data set: physicochemical. The method, boiled down:
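Zeta potential was read on a Malvern ZEN3700 after diluting 20 μL lipid nanoparticle solution (about 0.04 mg/mL mRNA) into 780 μL ultrapure water. Alternatively, a 27.5 μL sample in 200 μL water was first sized by dynamic light scattering, then diluted with 600 μL more water for potential measurement.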

Data set [4] has as its system mice. In words: In vivo delivery of FLuc-circ-RNA lipid nanoparticles in mice. The following applies: Fluc-circ-RNA LNP; for IVIS: organ not given. The protocol:
Lipid nanoparticles loaded with nucleic acid drugs were prepared according to step 2, replacing FLuc-mRNA with FLuc-circ-RNA (Hongene Biotech Corporation, Shanghai). After formulation, the nanoparticles were administered via intramuscular injection (into the quadriceps femoris muscle of mice), intravenous injection (into the tail vein of mice), intraperitoneal injection, or subcutaneous injection (subcutaneously on the back). Approximately 75 μL was injected per mouse, with a total of 3 mice per group. In vivo imaging (PerkinElmer, IVIS Lumina III) was performed after a certain period of time. Ten to fifteen minutes before imaging, 200 μL of a 15 mg/mL D-Luciferin working solution was injected intraperitoneally, followed by imaging analysis using the in vivo imaging system.

The mark [5] stands for this setting: DMG-PEG2000:DOPE:Chol:compound 1.40:11.15:38.95:48.50, N/P 30.
The mark [6] stands for this setting: DMG-PEG2000:DSPC:Chol:compound 1.00:11.50:27.50:60.00, N/P 30.
Setting [7] is: Fluc-circ-RNA LNP, preparation given IV.
Setting [8] is: DMG-PEG2000:DSPC:Chol:Lipid 1.40:11.15:38.95:48.50, N/P 10, IV, liver.
The mark [9] stands for this setting: DMG-PEG2000:DSPC:Chol:Lipid 1.40:11.15:38.95:48.50, N/P 10, IV, lung.
Where [10] appears, read: DMG-PEG2000:DSPC:Chol:Lipid 1.40:11.15:38.95:48.50, N/P 10, IV, spleen.
Where [11] appears, read: DMG-PEG2000:DSPC:Chol:Lipid 1.40:11.15:38.95:48.50, N/P 10, mRNA LNP, preparation given IH.
[12] abbreviates: DMG-PEG2000:DSPC:Chol:Lipid 1.40:11.15:38.95:48.50, N/P 10, mRNA LNP, preparation given IV.
Setting [13] is: Fluc-circ-RNA LNP, preparation given IM.
[14] abbreviates: DMG-PEG2000:DSPC:Chol:compound 1.40:11.15:38.95:48.50, N/P 30.
Where [15] appears, read: DSPE-PEG5000:DSPC:Chol:compound 1.40:11.15:38.95:48.50, N/P 30.
Where [16] appears, read: DMG-PEG2000:DSPC:Chol:compound 1.40:11.15:38.95:48.50, N/P 20.

For `[2H]C([2H])([2H])[N+](CCCN(CC(O)C(=O)NCCCCCCCCCCCC)CC(O)C(=O)NCCCCCCCCCCCC)(CCCN(CC(O)C(=O)NCCCCCCCCCCCC)CC(O)C(=O)NCCCCCCCCCCCC)C([2H])([2H])[2H]` (stereo not shown) [Compound L0346], the IVIS amounted to 3.49E+05 in data set [1] (IM, DMG-PEG2000:DOPE:Chol:compound 1.40:11.15:38.95:48.50, N/P 30, Fluc-mRNA); 1.95E+08 in data set [1] (IV, body, DMG-PEG2000:DOPE:Chol:compound 1.40:11.15:38.95:48.50, N/P 30, Fluc-mRNA); 3.93E+08 in data set [1] (IV, body, DMG-PEG2000:DSPC:Chol:compound 1.00:11.50:27.50:60.00, N/P 30, Fluc-mRNA); 2.65E+06 in data set [1] (IV, liver, DMG-PEG2000:DOPE:Chol:compound 1.40:11.15:38.95:48.50, N/P 30, Fluc-mRNA); 7.32E+06 in data set [1] (IV, liver, DMG-PEG2000:DSPC:Chol:compound 1.00:11.50:27.50:60.00, N/P 30, Fluc-mRNA); 3.10E+08 in data set [1] (IV, lung, DMG-PEG2000:DOPE:Chol:compound 1.40:11.15:38.95:48.50, N/P 30, Fluc-mRNA). Also, the IVIS came to 1.28E+09 in data set [1] (IV, lung, DMG-PEG2000:DSPC:Chol:compound 1.00:11.50:27.50:60.00, N/P 30, Fluc-mRNA); 3.66E+06 in data set [1] (IV, spleen, DMG-PEG2000:DOPE:Chol:compound 1.40:11.15:38.95:48.50, N/P 30, Fluc-mRNA); 6.96E+06 in data set [1] (IV, spleen, DMG-PEG2000:DSPC:Chol:compound 1.00:11.50:27.50:60.00, N/P 30, Fluc-mRNA). The “% of organ targeting” value in data set [1] (IV, liver, DMG-PEG2000:DOPE:Chol:compound 1.40:11.15:38.95:48.50, N/P 30) is 0.84%; in data set [1] (IV, liver, DMG-PEG2000:DSPC:Chol:compound 1.00:11.50:27.50:60.00, N/P 30) it was 0.56%; in data set [1] (IV, lung, DMG-PEG2000:DOPE:Chol:compound 1.40:11.15:38.95:48.50, N/P 30) it was 98.01%; in data set [1] (IV, lung, DMG-PEG2000:DSPC:Chol:compound 1.00:11.50:27.50:60.00, N/P 30), 98.90%; in data set [1] (IV, spleen, DMG-PEG2000:DOPE:Chol:compound 1.40:11.15:38.95:48.50, N/P 30), 1.16%; in data set [1] (IV, spleen, DMG-PEG2000:DSPC:Chol:compound 1.00:11.50:27.50:60.00, N/P 30), 0.54%. For the same compound, the “% of organ targeting” value in data set [4] (IV, liver) came out at 0.87%; in data set [4] (IV, lung), 98.45%; in data set [4] (IV, spleen), 0.69%. The PDI turned out to be 0.38 in data set [2] (setting [5]), 0.23 in data set [2] (setting [6]) and 0.24 in data set [2] (setting [7]). For the same compound, the entries for the “Particle size (nm)” value in data set [2] (setting [5]), in data set [2] (setting [6]) and in data set [2] (setting [7]) were 78.75 nm, 157.00 nm and 161.2 nm, respectively. Moreover, the “Zeta potential (mV)” value in data set [3] (setting [7]) turned out to be 14.23 mV.
`CCCCCCCCCCCOC(=O)CCCCCN(CCO)CCCCCCCC(=O)OC(CCCCCCCC)CCCCCCCC` [SM-102, reference compound]: the IVIS is 1.62 × 10^7 in data set [1] (DMG-PEG2000:DSPC:Chol:Lipid 1.40:11.15:38.95:48.50, N/P 10, IH, whole body scan); 6.67 × 10^7 in data set [1] (DMG-PEG2000:DSPC:Chol:Lipid 1.40:11.15:38.95:48.50, N/P 10, IM, whole body scan); 1.02 × 10^8 in data set [1] (DMG-PEG2000:DSPC:Chol:Lipid 1.40:11.15:38.95:48.50, N/P 10, IV, body); 1.99 × 10^7 in data set [1] (setting [8]); 3.11 × 10^5 in data set [1] (setting [9]); 1.23 × 10^7 in data set [1] (setting [10]). For the same compound, the IVIS was 2.06E+09 in data set [4] (IM) and 1.06E+09 in data set [4] (IV). For the same compound, the “% of organ targeting” value in data set [1] (setting [8]) is 61.21%; in data set [1] (setting [9]), 0.96%; in data set [1] (setting [10]), 37.83%. The “tissue-targeting specificity (lung vs spleen depending on molar percentage of compound)” value in data set [1] (certain formulations, Table 2) is listed as “not observed”. In addition, the PDI is on record as 0.16 ± 0.01 in data set [2] (setting [11]), 0.06 ± 0.02 in data set [2] (setting [12]), 0.09 in data set [2] (setting [13]) and 0.19 in data set [2] (setting [7]). Moreover, the Particle size in data set [2] (setting [11]) is recorded as 127.47 ± 2.05 nm; in data set [2] (DMG-PEG2000:DSPC:Chol:Lipid 1.40:11.15:38.95:48.50, N/P 10, mRNA LNP, preparation given IM), 111.27 ± 0.84 nm; in data set [2] (setting [12]), 131.20 ± 1.25 nm. The “Particle size (nm)” value in data set [2] (setting [13]) was 90.08 nm; in data set [2] (setting [7]), 65.67 nm.
With `CCCCCCCCCCCCCCOC(=O)C(O)CN(CCN(C)CCN(CC(O)C(=O)OCCCCCCCCCCCCCC)CC(O)C(=O)OCCCCCCCCCCCCCC)CC(O)C(=O)OCCCCCCCCCCCCCC` (stereo not shown) [Compound L0338], the IVIS in data set [1] (IM, DMG-PEG2000:DSPC:Chol:compound 1.40:11.15:38.95:48.50, N/P 30, Fluc-mRNA) amounted to 3.98E+05; in data set [1] (IV, body, DMG-PEG2000:DSPC:Chol:compound 1.40:11.15:38.95:48.50, N/P 30, Fluc-mRNA) it was 8.55E+06; in data set [1] (IV, liver, DMG-PEG2000:DSPC:Chol:compound 1.40:11.15:38.95:48.50, N/P 30, Fluc-mRNA), 8.81E+05; in data set [1] (IV, lung, DMG-PEG2000:DSPC:Chol:compound 1.40:11.15:38.95:48.50, N/P 30, Fluc-mRNA), 2.91E+05; in data set [1] (IV, spleen, DMG-PEG2000:DSPC:Chol:compound 1.40:11.15:38.95:48.50, N/P 30, Fluc-mRNA) it was 6.73E+06. The “% of organ targeting” value is reported as 11.14% in data set [1] (IV, liver, DMG-PEG2000:DSPC:Chol:compound 1.40:11.15:38.95:48.50, N/P 30); 3.68% in data set [1] (IV, lung, DMG-PEG2000:DSPC:Chol:compound 1.40:11.15:38.95:48.50, N/P 30); 85.18% in data set [1] (IV, spleen, DMG-PEG2000:DSPC:Chol:compound 1.40:11.15:38.95:48.50, N/P 30). In data set [2] (setting [14]), this compound gave a PDI of 0.22. For the same compound, in data set [2] (setting [14]), the “Particle size (nm)” value is on record as 96.63 nm. Further, in data set [3] (setting [14]), the “Zeta potential (mV)” value worked out at 19.13 mV.
In the case of `CCCCCCCCCCCCN(C)C(=O)C(O)CN(C)CCN(C)CCN(C)CC(O)C(=O)N(C)CCCCCCCCCCCC` (stereo not shown) [Compound L0341], the IVIS in data set [1] (IM, DSPE-PEG5000:DSPC:Chol:compound 1.40:11.15:38.95:48.50, N/P 30, Fluc-mRNA) was 9.99E+04; in data set [1] (IV, organ not given, DSPE-PEG5000:DSPC:Chol:compound 1.40:11.15:38.95:48.50, N/P 30, Fluc-mRNA), 4.10E+05. The same compound came in with a PDI in data set [2] (setting [15]) of 0.18. The “Particle size (nm)” value in data set [2] (setting [15]) worked out at 212.5 nm. Besides, in data set [3] (setting [15]), the “Zeta potential (mV)” value is 7.85 mV.
Regarding `CCCCCCCCCCOC(=O)C(O)CN(CCOCCOCCN(CC(O)C(=O)OCCCCCCCCCC)CC(O)C(=O)OCCCCCCCCCC)CC(O)C(=O)OCCCCCCCCCC` (stereo not shown) [Compound L0324], the IVIS in data set [1] (IM, DMG-PEG2000:DSPC:Chol:compound 1.40:11.15:38.95:48.50, N/P 20, Fluc-mRNA) was found to be 4.15E+05. Besides, the IVIS in data set [1] (IV, organ not given, DMG-PEG2000:DSPC:Chol:compound 1.40:11.15:38.95:48.50, N/P 20, Fluc-mRNA) is listed as 7.27E+05. Moreover, in data set [2] (setting [16]), the PDI was found to be 0.47 and the “Particle size (nm)” value turned out to be 445.20 nm. In data set [3] (setting [16]), the “Zeta potential (mV)” value stood at 5.44 mV.
